The values below come from publication PMC11110727, “Exploiting thiol-functionalized benzosiloxaboroles for achieving diverse substitution patterns – synthesis, characterization and biological evaluation of promising antibacterial agents” (RSC Medicinal Chemistry, 2024).

The subject of one assay is S. aureus ATCC 6538P. Kind of assay: Antibacterial activity: MIC/MBC determination and disc-diffusion. In kind it is cell-based, Staphylococcus aureus. The note with it: S. aureus ATCC 6538P. Here is the method:
(§1) Direct antimicrobial activity was determined against the following standard strains: (1) Gram-positive cocci: methicillin-sensitive Staphylococcus aureus ATCC 6538P (MSSA), methicillin-resistant S. aureus subsp. aureus ATCC 43300 (MRSA), S. epidermidis ATCC 12228, Enterococcus faecium ATCC 6057, E. faecalis ATCC 29212, Bacillus subtilis ATCC 6633; (2) Gram-negative bacteria from Enterobacteriales order: Klebsiella pneumoniae ATCC 13883, Escherichia coli ATCC 25922, Enterobacter cloacae DSM 6234, Proteus mirabilis ATCC 12453, Serratia marcescens ATCC 13880; (3) Gram-negative non-fermentative rods: Acinetobacter baumannii ATCC 19606, Pseudomonas aeruginosa ATCC 27853, Stenotrophomonas maltophilia ATCC 12714, S. maltophilia ATCC 13637, Burkholderia cepacia ATCC 25416, Bordetella bronchiseptica ATCC 4617; (4) yeasts: Candida albicans ATCC 90028, C. krusei ATCC 6258, C. parapsilosis ATCC 22019, C. tropicalis (Castellani) Berkhout ATCC 750, C. tropicalis IBA 171, C. guilliermondii IBA 155, and Saccharomyces cerevisiae ATCC 9763. Moreover, 5 clinical strains of methicillin-resistant S. aureus were also included: NMI 664 K, NMI 1576 K, NMI 1712 K, NMI 1991 K, and NMI 2541 K. All strains were stored at −80 °C. Prior to testing, each bacterial strain was subcultured twice on tryptic soy agar TSA (bioMerieux) medium and yeast strains on Sabouraud dextrose agar (bioMerieux) for 24–48 h at 30 °C to ensure viability. The antimicrobial activity was evaluated as previously described[26] by the disc-diffusion method and the MIC determination assays according to the EUCAST (ref. [71] and [72]) and CLSI (ref. [53] and [73]) recommendations. Assessment of bactericidal (MBC) and fungicidal (MFC) activities was performed according to the CLSI recommendations.[54,74] The following reference agents were used: fluconazole (in the case of fungi), linezolid (for Gram-positive bacteria), and nitrofurantoin (for Gram-negative rods). The new benzosiloxaboroles were dissolved in DMSO (Sigma).
For orientation: In agar diffusion tests the substance spreads into inoculated agar from a disc or well.

The test system of assay [1] is Human normal lung fibroblasts MRC-5. Kind of assay: MTT-based viability (cytotoxicity) assay. The note with it: Homo sapiens, MRC5, 48 h. Here is the method:
To evaluate the cytotoxic effect of the tested compounds, an MTT-based assay was performed. […] Moreover, based on available IC50 and MIC (for standard and clinical S. aureus MRSA strains) values, the selectivity index (SI) was calculated for several compounds as the IC50/MIC ratio (Table 5).[60]
MRC-5 pd30 human fibroblasts (ECACC) were cultured in MEME, Minimum Essential Medium Eagle (Merck), supplemented with 10% fetal bovine serum (Merck), 2 mM L-glutamine, antibiotics (100 U mL^−1 penicillin, 100 μg mL^−1 streptomycin, Merck) and 1% non-essential amino acids (Merck). Cells were grown in 75 cm^2 cell culture flasks (Sarstedt), in a humidified atmosphere of CO2/air (5/95%) at 37 °C. MTT-based viability assay was conducted as described previously.[26] Optical densities were measured at 570 nm using a BioTek microplate reader. All measurements were carried out in three replicates and the results expressed as a percent of viable cells versus control cells. […] The selectivity index (SI) was calculated as [drawing 30] , in accordance with previously described protocols.[60]

The subject of a further assay is E. faecalis ATCC 29212. Description: Antibacterial activity: MIC/MBC determination and disc-diffusion. The assay is classed as cell-based. The conditions noted are these: Enterococcus faecalis, ATCC29212, E. faecalis ATCC 29212. The procedure: as §1
The subject of assay [2] is S. epidermidis ATCC 12228. The assay is described as above. The assay is classed as cell-based. The conditions noted are these: Staphylococcus epidermidis, ATCC12228, S. epidermidis ATCC 12228. The procedure:
as §1

The next assay relates to E. faecium ATCC 6057. Described as above. The assay is classed as cell-based. The note with it: Enterococcus faecium, ATCC6057, E. faecium ATCC 6057. The procedure: as §1
Assay [3] concerns S. aureus ATCC 43300 MRSA. Described as above. The assay is classed as cell-based. The conditions noted are these: Staphylococcus aureus, S. aureus ATCC 43300 MRSA. Here is the method:
as §1

Assay [4] has as its system S. aureus NMI 1712 K MRSA. Kind of assay: Antibacterial activity against clinical MRSA: MIC/MBC. In kind it is cell-based. The note with it: Staphylococcus aureus, NMI 1712 K MRSA. Here is the method:
as §1

Assay [5] relates to S. aureus NMI 1991 K MRSA. The assay is described as above. In kind it is cell-based. The conditions noted are these: Staphylococcus aureus, NMI 1991 K MRSA. Here is the method: as §1
Another assay relates to S. aureus NMI 664 K MRSA. The description is as above. In kind it is cell-based. The note with it: Staphylococcus aureus, NMI 664 K MRSA. The procedure:
as §1

Assay [6] deals with S. aureus NMI 1576 K MRSA. The description is as above. The assay is classed as cell-based. The conditions noted are these: Staphylococcus aureus, NMI 1576 K MRSA. The procedure:
as §1

Assay [7] deals with S. aureus NMI 2541 K MRSA. Described as above. The assay is classed as cell-based. The conditions noted are these: Staphylococcus aureus, NMI 2541 K MRSA. Here is the method: as §1
Another assay addresses T1, S. aureus MRSA LeuRS (Staphylococcus aureus, UniProt P67513).
T1 construct: The LeuRS gene from MRSA (PW-71) was amplified by PCR; made in house; host or cells: E. coli BL21(DE3)pLys
Description: In vitro aminoacylation (enzyme inhibition) assay. The conditions noted are these: read-out: residual activity of S. aureus MRSA LeuRS. In kind it is biochemical. Here is the method: We have undertaken research devoted to determining the most probable mechanism of antibacterial action. […] Considering structural similarity to benzoxaboroles we assumed that benzosiloxaboroles are active through this mechanism. Our working hypothesis was supported by the fact that benzosiloxaboroles are rather bacteriostatic than bactericidal,[26,27] which is consistent with the specificity of the OBORT mechanism. The enzyme inhibition assay was performed for compound 20 as it features high activity against S. aureus MRSA strains and the respective favorable SI = 19.5 (Table 5). […] We obtained S. aureus MRSA LeuRS in the E. coli expression system. From 400 mL culture, approximately 20 mg of 6× His tagged LeuRS (with a molecular mass of 92.3 kDa) was purified to more than 90% homogeneity, which was confirmed by sodium dodecylsulfate-polyacrylamide gel electrophoresis (SDS-PAGE; Fig. S2, ESI ^†). Next, we used an in vitro aminoacylation assay to investigate the ability of 20 to inhibit S. aureus MRSA LeuRS activity consistent with affecting the transfer of the ^14C-radiolabeled leucine to a total tRNA. […] (residual activity 30.8% at 25 μM).
The LeuRS gene from MRSA (PW-71) was amplified by PCR using the following primers: 5′-[…]-3′ and 5′-[…]-3′. The amplified leuRS was digested with BamHI and NotI and ligated into pETDuet-1 vector (Novagen) which carries an N-terminal His tag. After sequencing, the pETDuet1-leuRS plasmid was transformed into E. coli BL21(DE3)pLys cells, which were then grown overnight in 20 mL of Luria–Bertani (LB) medium containing 100 μg mL^−1 ampicillin and 30 μg mL^−1 chloramphenicol. Then the overnight culture was inoculated into 400 mL of Super Broth medium containing ampicillin and chloramphenicol at the same concentration, and the cells were grown until the OD600 reached 0.6. […] The protein concentration in the final solution was 2.86 mg mL^−1 (determined by the Bradford method and bovine serum albumin as a standard).[78] […]

Where [8] appears, read: read-out: MBC (first MBC where Eagle effect).

≈ marks a conversion by molar mass, not a printed value. A value given as a limit tells only on which side of the number the result lay.

T1 sequence (P67513 whole entry): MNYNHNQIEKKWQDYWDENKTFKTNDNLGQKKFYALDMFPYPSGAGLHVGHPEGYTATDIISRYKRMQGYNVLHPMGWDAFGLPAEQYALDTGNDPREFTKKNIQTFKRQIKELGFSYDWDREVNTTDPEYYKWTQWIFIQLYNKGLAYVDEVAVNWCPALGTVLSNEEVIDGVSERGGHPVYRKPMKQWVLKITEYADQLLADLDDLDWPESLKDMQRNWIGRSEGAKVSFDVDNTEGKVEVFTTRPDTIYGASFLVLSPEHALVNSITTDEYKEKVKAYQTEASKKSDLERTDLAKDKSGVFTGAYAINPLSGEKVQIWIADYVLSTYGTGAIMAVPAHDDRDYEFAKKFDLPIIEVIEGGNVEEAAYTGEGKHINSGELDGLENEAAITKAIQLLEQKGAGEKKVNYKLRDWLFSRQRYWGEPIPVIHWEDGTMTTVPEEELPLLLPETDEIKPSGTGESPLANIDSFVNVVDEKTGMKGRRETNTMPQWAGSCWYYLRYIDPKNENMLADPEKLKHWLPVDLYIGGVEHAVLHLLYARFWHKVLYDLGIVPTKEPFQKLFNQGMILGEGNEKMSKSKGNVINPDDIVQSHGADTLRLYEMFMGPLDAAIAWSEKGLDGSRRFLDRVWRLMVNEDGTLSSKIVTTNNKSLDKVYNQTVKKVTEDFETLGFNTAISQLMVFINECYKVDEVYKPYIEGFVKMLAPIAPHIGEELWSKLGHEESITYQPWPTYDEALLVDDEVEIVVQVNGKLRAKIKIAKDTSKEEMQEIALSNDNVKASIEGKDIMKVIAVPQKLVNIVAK

Take `CC(=O)NC[C@H]1CN(c2ccc(N3CCOCC3)c(F)c2)C(=O)O1` [LIN, linezolid, reference compound]: the “diameter of inhibition zone” value with S. aureus ATCC 6538P (disc-diffusion, — = zone not observed) was found to be 25 mm. Also, the minimal bactericidal concentration (MBC) with S. aureus ATCC 6538P (Staphylococcus aureus, ATCC6538P, read-out: MBC (first MBC where Eagle effect)) was greater than 128 µg/mL; against E. faecalis ATCC 29212, greater than 128 µg/mL; in assay [2] it was greater than 128 µg/mL; against E. faecium ATCC 6057, greater than 128 µg/mL; in [3] (setting [8]) it was greater than 128 µg/mL; in assay [4] (setting [8]), greater than 128 µg/mL. Besides, the minimal bactericidal concentration (MBC) (in [5] (setting [8]); in the assay with S. aureus NMI 664 K MRSA (setting [8]); in [6] (setting [8]); in assay [7] (setting [8])) was greater than 128 µg/mL each time. Besides, the minimal inhibitory concentration (MIC) in the assay with S. aureus ATCC 6538P (Staphylococcus aureus, ATCC6538P, read-out: MIC) stood at 1 µg/mL (≈ 2.96 µM); with E. faecalis ATCC 29212 (read-out: MIC), 2 µg/mL (≈ 5.93 µM); in [2] (read-out: MIC) it was 1 µg/mL (≈ 2.96 µM); in the assay on E. faecium ATCC 6057 (read-out: MIC), 2 µg/mL (≈ 5.93 µM); in assay [3] (read-out: MIC), 2 µg/mL (≈ 5.93 µM); in [4] (read-out: MIC) it was 1 µg/mL (≈ 2.96 µM). Further, the minimum inhibitory concentration (MIC) (in assay [5] (read-out: MIC); in the assay on S. aureus NMI 664 K MRSA (read-out: MIC); in assay [6] (read-out: MIC); in assay [7] (read-out: MIC)) was 1 µg/mL (≈ 2.96 µM) in each case. In [1], the half-maximal inhibitory concentration (IC50) was greater than 400 µg/mL.

As to `Nc1ccc(S(=O)(=O)Nc2ccc3c(c2)B(O)OC3)cc1` [PT662, reference compound], on S. aureus MRSA LeuRS, the remaining activity at 25 µM was found to be 30.8%.

As a reminder, the MBC is the lowest tested concentration that kills the bacteria rather than only halting them. One may read the MIC as the least concentration at which growth counts as inhibited. A word on the IC50: it is the concentration that gives 50% inhibition. Low values mean higher potency, high ones lower potency.
